# From PMC9564337, “Development of a Neurotensin-Derived ^68Ga-Labeled PET Ligand with High In Vivo Stability for Imaging of NTS1 Receptor-Expressing Tumors” (Cancers, 2022)
# Where two headings read alike, the source gives them in different places. Marks after values point to notes of the source that are not given here.
# What was measured:
# [1] = biological target: T1, hNTS1R (Homo sapiens, UniProt P30989); test: radioligand competition binding with [3H]UR-MK300 at intact HT-29 cells
# T1 construct: intact HT-29 colon carcinoma cells expressing the hNTS1R; host or cells: HT-29 human colon carcinoma cells
# T1 sequence (P30989 whole entry): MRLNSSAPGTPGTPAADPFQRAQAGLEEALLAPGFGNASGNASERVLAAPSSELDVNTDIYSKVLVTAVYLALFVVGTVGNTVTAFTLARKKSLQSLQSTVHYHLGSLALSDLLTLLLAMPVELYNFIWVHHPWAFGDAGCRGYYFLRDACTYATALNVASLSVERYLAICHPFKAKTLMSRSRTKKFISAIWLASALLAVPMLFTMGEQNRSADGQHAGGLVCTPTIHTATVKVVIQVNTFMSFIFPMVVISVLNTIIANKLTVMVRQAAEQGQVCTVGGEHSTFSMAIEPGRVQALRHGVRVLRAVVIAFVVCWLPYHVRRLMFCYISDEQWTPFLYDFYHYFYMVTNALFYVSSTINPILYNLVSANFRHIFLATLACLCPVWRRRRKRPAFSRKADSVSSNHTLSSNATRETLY
# Description: Specific binding data (obtained by subtracting unspecific binding from total binding) were normalized (100% = specifically bound radioligand in the absence of competitor) and plotted over log(concentration of competitor) followed by a four-parameter logistic fit (SigmaPlot 12.5, Systat Software, San José, CA, USA) (note: in the case of 40, the lower curve plateau of the sigmoidal fit was constrained to >0). […] The Ki values from individual experiments were transformed to pKi values, followed by the calculation of mean pKi values ± SD.
# [2] = biological target: hNTS2R (Homo sapiens, UniProt O95665); test: radioligand competition binding with [3H]UR-MK300 at intact HEK293T-hNTS2R cells; conditions: [3H]UR-MK300 c = 10 nM
# Sequence of hNTS2R (O95665 whole entry): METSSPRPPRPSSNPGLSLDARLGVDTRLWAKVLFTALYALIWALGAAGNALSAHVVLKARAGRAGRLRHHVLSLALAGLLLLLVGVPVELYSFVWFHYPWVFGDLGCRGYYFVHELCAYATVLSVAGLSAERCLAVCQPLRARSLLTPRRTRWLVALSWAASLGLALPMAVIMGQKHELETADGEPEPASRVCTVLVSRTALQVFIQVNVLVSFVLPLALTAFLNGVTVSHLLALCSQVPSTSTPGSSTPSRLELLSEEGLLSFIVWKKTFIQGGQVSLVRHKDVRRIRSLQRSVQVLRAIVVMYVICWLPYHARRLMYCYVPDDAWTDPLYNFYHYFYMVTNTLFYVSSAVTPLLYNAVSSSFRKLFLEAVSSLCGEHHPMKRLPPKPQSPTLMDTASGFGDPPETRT
# Protocol: Two days prior to the experiment, white 96-well plates with clear bottoms (Costar, catalog no. 3610) were treated with poly-D-lysine hydrobromide (Sigma-Aldrich) for 10 min. The wells were washed with H2O and the plates were dried on air at rt overnight. […] After removal of the glutaraldehyde solution, the wells were washed twelve times with H2O and two times with culture medium (150–300 µL). […] On the day of the experiment, the culture medium was carefully removed using a multi-channel pipette (Transferpette S-12, Brand, Wertheim, Germany) and the cells were washed once with Dulbecco’s phosphate-buffered saline (D-PBS) containing Ca^2+ and Mg^2+ (1.8 mM CaCl2, 2.68 mM KCl, 1.47 mM KH2PO4, 3.98 mM MgSO4, 136.9 mM NaCl and 8.06 mM Na2HPO4) (200 μL, rt) followed by the careful pre-filling of the wells with 180 µL (total binding) or 160 µL (unspecific and competition binding) of D-PBS, supplemented with 1% BSA and 100 μg/mL bacitracin (Serva, Heidelberg, Germany) (in the following referred to as binding buffer). To determine total binding, 20 µL of a solution of the radioligand in binding buffer (10-fold concentrated compared to the final concentration) were added. […] To determine the displacing effect of a compound of interest, 20 µL of a solution of the respective compound in binding buffer (10-fold concentrated) and 20 µL of a 10-fold concentrated solution of the radioligand in binding buffer were added. During the incubation period of 2 h at 23 °C, the plates were gently shaken. […] The plates were sealed with a transparent sealing tape (permanent seal for microplates, PerkinElmer, product no. 1450–461) and turned upside down several times to achieve complete mixing. Prior to the measurement of the radioactivity with a MicroBeta2 plate counter (PerkinElmer), the plates were kept in the dark for at least 1 h. All experiments were performed in triplicate.
# [3] = biological target: T1, hNTS1R; conditions: HT-29 cells, cited from earlier work
# [4] = human plasma, 37 °C, cited from earlier work
# [5] = biological target: T1, hNTS1R; test: fura-2 Ca2+-assay on intact HT-29 cells; type: cell-based; conditions: maximal response comparable to that of 1
# Protocol: The fura-2 calcium assay on intact hNTS1R-expressing HT-29 cells was performed as previously described for human erythroleukemia cells using a Perkin-Elmer LS50 B spectrofluorimeter (PerkinElmer, Rodgau, Germany). At a confluency of 80–95%, cells were trypsinized, detached from the culture flask and the assay was performed as described in the protocol.
# [6] = in vitro; type: in vitro ADME; conditions: human
# Protocol: The concentration of the peptides in plasma/PBS (1:2 v/v) was 80 and 4 μM (recovery determination) or 100 μM (stability tests). Data analysis was based on UV detection at 220 nm (8, 9, 11, 12, 14-18, 21-23, 38-49, and 54-57) or fluorescence detection at 275/305 nm (19 and 20). Reference samples, representing 100% recovery, were prepared in duplicate (8, 9, 11, 14-16, and 19-21) or quadruplicate (12, 17, 18, 22, 23, 38-49, and 54-57). Recovery ratios were obtained by dividing the recovery of the peptide by the recovery of IS for each individual sample (n = 3-5). The obtained recoveries and the recovery ratios are summarized in Table S2, Supplementary Materials. […] Instead, the recovery ratios determined for the previously reported, structurally closely related peptide […] [40] were used for calculating the amount of remaining intact peptide in plasma.
# [7] = read-out: Ki [nM] NTS2R (converted)
# [8] = read-out: pKi ± SD NTS2R (converted)
# [9] = ref Schindler et al. [3] of the supplement (= [60])
structure (smiles),measurement,setting,value
"CN[C@@H](CCCNC(=N)N)C(=O)N[C@@H](CCCNC(=N)N)C(=O)N1CCC[C@H]1C(=O)N[C@@H](Cc1ccc(O)cc1)C(=O)N[C@H](C(=O)N[C@@H](CC(C)C)C(=O)O)C(C)(C)C [Compound 3, reference compound]",NTS1R Selectivity (Ratio Ki (NTS2R)/Ki (NTS1R)),[1],11
same,Ki,[2]; [7],9.9 nM
same,Ki,[2]; [8],9.77 nM
same,pKi NTS1R,[3]; ref Schindler et al. [40],9.07
same,% Intact Peptide in Plasma after 1 h,[4]; ref Schindler et al. [40],>99 ^d %
same,% Intact Peptide in Plasma after 6 h,[4]; ref Schindler et al. [40],>99 ^d %
same,% Intact Peptide in Plasma after 24 h,[4]; ref Schindler et al. [40],98 ^d %
same,% Intact Peptide in Plasma after 48 h,[4]; ref Schindler et al. [40],87 ^d %
CN[C@@H](CCCNC(N)=NC(=O)NCCCCN)C(=O)N[C@@H](CCCNC(=N)N)C(=O)N1CCC[C@H]1C(=O)N[C@@H](Cc1ccc(O)cc1)C(=O)N[C@H](C(=O)N[C@@H](CC(C)C)C(=O)O)C(C)(C)C [Compound 10],NTS1R Selectivity (Ratio Ki (NTS2R)/Ki (NTS1R)),[1],6.8
same,Ki,[2]; [7],19 nM
same,Ki,[2]; [8],19.1 nM
same,pKi NTS1R,[3]; [9],8.55
same,Ki,"[3]; ref Schindler et al. [3] of the supplement (= [60]), read-out: Ki [nM] NTS1R",2.8 nM
same,% Intact Peptide in Plasma after 1 h,[4]; [9],> 99%
same,% Intact Peptide in Plasma after 6 h,[4]; [9],> 99%
same,% Intact Peptide in Plasma after 24 h,[4]; [9],> 99%
same,% Intact Peptide in Plasma after 48 h,[4]; [9],> 99%
CN[C@@H](CCCNC(N)=NC(=O)NCCCCNC(=O)CN1CCN(CC(=O)O)CCN(CC(=O)O)CCN(CC(=O)O)CC1)C(=O)N[C@@H](CCCNC(=N)N)C(=O)N1CCC[C@H]1C(=O)N[C@@H](Cc1ccc(O)cc1)C(=O)N[C@H](C(=O)N[C@@H](CC(C)C)C(=O)O)C(C)(C)C [Compound 21],NTS1R Selectivity (Ratio Ki (NTS2R)/Ki (NTS1R)),[1],6.0
same,pKi ± SD NTS1R,"[1]; [3H]UR-MK300 c = 1 nM, HT-29 cells, 23 °C",8.01 ± 0.08
same,Ki,"[1]; [3H]UR-MK300 c = 1 nM, HT-29 cells, 23 °C, read-out: Ki [nM] NTS1R (converted)",9.9 nM
same,pKi ± SD NTS2R,[2],7.25 ± 0.15
same,Ki,[2]; [7],59 nM
same,agonistic activity at the Gq-coupled NTS1R,[5],full agonists
same,% Intact Peptide in Plasma after 24 h,"[6]; 24 h, 100 µM, pH 7.4",26 ± 1%
same,% Intact Peptide in Plasma after 48 h,"[6]; 48 h, 100 µM, pH 7.4",4.1 ± 0.1%
same,"remaining at 1 h, 100 µM","[6]; plasma, pH 7.4, % Intact Peptide in Plasma after 1 h",> 99%
same,"remaining at 6 h, 100 µM","[6]; plasma, pH 7.4, % Intact Peptide in Plasma after 6 h",> 99%
